Earlier results in PMC3066546, “Development of modified nucleosides that have supremely high anti-HIV activity and low toxicity and prevent the emergence of resistant HIV mutants” (Proceedings of the Japan Academy. Series B, Physical and …, 2011).

Experiments:
[1] = CEM cells, MT4 cells, MAGI-CCR5 cells
[2] = test system: HIV; set-up: method as in PMID 7764216; conditions: Table 1
[3] = set-up: method as in PMID 563233, PMID 17548498, PMID 18487070; conditions: acidic conditions of gastric juices (pH 1.06), 24 ℃
[4] = cytotoxic concentration, Table 1
[5] = target: human mitochondrion DNA polymerase (DNA polymerase γ); set-up: method as in PMID 17548498, PMID 18487070; conditions: read-out: EC50 to inhibit the incorporation of dATP
[6] = test system: RT of the M184V mutant; set-up: method as in PMID 15456247; conditions: 4′EddCTP compared with RT of wild-type HIV

3′-azido-3′-deoxythymidine-5′-O-phosphate [AZTTP, reference compound]
intracellular half-life (T1/2) [1]: 3 h

Nc1ncnc2c1ncn2[C@H]1CC[C@@H](CO)O1 [ddA, 2′,3′-dideoxyadenosine, reference compound]
SI (CC50/EC50) [2]: >11 | EC50 ([2]; anti-HIV): 47 µM | time to complete decomposition [3]: 5 min | CC50 [4]: > 500 µM

Nc1ncnc2c1ncn2[C@H]1CC[C@@H](CO[P@@](=O)(O)O[P@](=O)(O)OP(=O)(O)O)O1 [ddATP, 2′,3′-dideoxyadenosine-5-O-triphosphate, reference compound]
EC50 [5]: 0.2 µM

C#CC1(COP(=O)(O)OP(=O)(O)OP(=O)(O)O)CCC(n2ccc(N)nc2=O)O1 (single isomer, unassigned) [L-isomer of 4′EddCTP]
activity against RT of the M184V mutant [6]: not active
